The test system of this assay is human CFTR. Put plainly: high-throughput compatible fluorescence membrane potential assay, forskolin dose-response in stable CFTR-expressing CHO cell lines. The format is cell-based. The note with it: stable CFTR-expressing CHO cell line, 15,000 cells/well, 384-well plate, membrane potential dye. Here is the method: CHO cell lines stably expressing CFTR were maintained under standard cell culture conditions in Ham's F12 medium supplemented with 10% fetal bovine serum and glutamine. On the day before assay, the cells were harvested from stock plates and plated into black clear-bottom 384 well assay plates at a density that is sufficient to attain 90% confluency on the day of the assay. The assay plates were maintained in a 37° C. cell culture incubator under 5% CO2 for 22-24 hours. The media was then removed from the assay plates and blue membrane potential dye (Molecular Devices Inc.) diluted in loading buffer (137 mM NaCl, 5 mM KCl, 1.25 mM CaCl2, 25 mM HEPES, 10 mM glucose) was added and allowed to incubate for 1 hour at 37° C. The assay plates were then loaded on a fluorescent plate reader (Hamamatsu FDSS) and a cocktail of forskolin and IBMX dissolved in compound buffer (137 mM sodium gluconate, 5 mM potassium gluconate, 1.25 mM CaCl2, 25 mM HEPES, 10 mM glucose) was added. For forskolin dose-response experiments, cells of the produced stable CFTR-expressing cell lines, plated at a density of 15,000 cells/well in a 384-well plate were challenged with increasing concentration of forskolin, a known CFTR agonist. The cellular response as a function of changes in cell fluorescence was monitored over time by a fluorescent plate reader (Hamamatsu FDSS).

Where “and” joins values, the source holds several entries; their conditions need not be identical. Equal values may be shown once.

The term EC50 denotes the concentration at which the effect is half-maximal.

As to `C=C[C@@]1(C)CC(=O)[C@]2(O)[C@@]3(C)[C@@H](O)CCC(C)(C)[C@@H]3[C@H](O)[C@H](OC(C)=O)[C@@]2(C)O1` [forskolin], the EC50 is 0.256 µM and ~0.25 µM.
